For test [1], the system named is diamond back moth (Plutella xylostella). The experiment in a line: Diamond back moth (Plutella xylostella) cabbage leaf disc dip test. Format: in vivo. As to conditions: for Test according to B.4 (Plutella xylostella) @ 10 ppm: comparison data; for mortality at 800 ppm: Plutella xylostella, foliar, 3rd instar larvae, 72 hours after treatment, read-out: mortality in comparison with untreated controls. How it is done:
B.4 Diamond Back Moth (Plutella xylostella)
The active compound is dissolved at the desired concentration in a mixture of 1:1 (vol:vol) distilled water: acetone. Surfactant (Kinetic) is added at a rate of 0.01% (vol/vol). The test solution is prepared at the day of use. Cabbage leaf discs (60 mm in diameter) are dipped in test solution and air-dried. Treated leaves are placed in petri dishes lined with moistened filter paper and inoculated with ten 3rd instar larvae. Mortality is recorded 72 hours after treatment. Feeding damage is also recorded using a scale of 0-100%.

Test [2] has as its system boll weevil (Anthonomus grandis). As to the kind of experiment: Boll weevil (Anthonomus grandis) microtiter diet test, egg and larval mortality. As to conditions: 120 h, egg and larval mortality after 5 days, read-out: mortality in comparison with untreated controls. It counts as in vivo. How it is done: B.1 Boll Weevil (Anthonomus grandis)
For evaluating control of boll weevil (Anthonomus grandis) the test unit consisted of 96-well-microtiter plates containing an insect diet and 5-10 A. grandis eggs. The compounds were formulated using a solution containing 75% v/v water and 25% v/v DMSO. Different concentrations of formulated compounds were sprayed onto the insect diet at 5 μl, using a custom-built micro atomizer, at two replications. After application, microtiter plates were incubated at about 25±1° C. and about 75±5% relative humidity for 5 days. Egg and larval mortality was then visually assessed.

Test [3] relates to tobacco budworm (Heliothis virescens). As to the kind of experiment: Tobacco budworm (Heliothis virescens) microtiter diet test, egg and larval mortality. Format: in vivo. As to conditions: 120 h, egg and larval mortality after 5 days, read-out: mortality in comparison with untreated controls. How it is done: B.2 Tobacco Budworm (Heliothis virescens)
For evaluating control of tobacco budworm (Heliothis virescens) the test unit consisted of 96-well-microtiter plates containing an insect diet and 15-25 H. virescens eggs. The compounds were formulated using a solution containing 75% v/v water and 25% v/v DMSO. Different concentrations of formulated compounds were sprayed onto the insect diet at 10 μl, using a custom-built micro atomizer, at two replications. After application, microtiter plates were incubated at about 28±1° C. and about 80±5% relative humidity for 5 days. Egg and larval mortality was then visually assessed.

Test [4] concerns green peach aphid (Myzus persicae). As to the kind of experiment: Green peach aphid (Myzus persicae) systemic artificial diet test. The conditions noted are these: 72 h, aphid mortality after 3 days, read-out: mortality in comparison with untreated controls. It counts as in vivo. The text has this:
B.3 Green Peach Aphid (Myzus persicae)
For evaluating control of green peach aphid (Myzus persicae) through systemic means the test unit consisted of 96-well-microtiter plates containing liquid artificial diet under an artificial membrane. The compounds were formulated using a solution containing 75% v/v water and 25% v/v DMSO. Different concentrations of formulated compounds were pipetted into the aphid diet, using a custom built pipetter, at two replications. After application, 5-8 adult aphids were placed on the artificial membrane inside the microtiter plate wells. The aphids were then allowed to suck on the treated aphid diet and incubated at about 23±1° C. and about 50±5% relative humidity for 3 days. Aphid mortality and fecundity was then visually assessed.

Test [5] relates to southern armyworm (Spodoptera eridania), 2nd instar larvae. As to the kind of experiment: whole plant or invertebrate. The conditions noted are these: in Phaseolus lunatus, foliar, 96 h, read-out: mortality in comparison with untreated controls. The method, then:
B.5 Southern Armyworm (Spodoptera eridania), 2nd Instar Larvae
The 10,000 ppm solution was serially diluted in 100% cyclohexanone to make interim solutions. These served as stock solutions for which final dilutions were made by the Tecan in 50% acetone:50% water (v/v) into 10 or 20 ml glass vials. A nonionic surfactant (Kinetic®) was included in the solution at a volume of 0.01% (v/v). The vials were then inserted into an automated electrostatic sprayer equipped with an atomizing nozzle for application to plants/insects. Lima bean plants (variety Sieva) were grown 2 plants to a pot and selected for treatment at the 1st true leaf stage. Test solutions were sprayed onto the foliage by an automated electrostatic plant sprayer equipped with an atomizing spray nozzle. The plants were dried in the sprayer fume hood and then removed from the sprayer. Each pot was placed into perforated plastic bags with a zip closure. Ten to 11 armyworm larvae were placed into the bag and the bags zipped closed. Test plants were maintained in a growth room at about 25° C. and about 20-40% relative humidity for 4 days, avoiding direct exposure to fluorescent light (14:10 light:dark photoperiod) to prevent trapping of heat inside the bags. Mortality and reduced feeding were assessed 4 days after treatment, compared to untreated control plants.

Bounds are passed on as bounds.

Consider `CCS(=O)(=O)c1cc(C(C)(C)C#N)cnc1-c1cn2c(=O)n(C3CC3)c(C(F)(F)F)cc2n1` [Compound C.4, reference compound], for which the “Test according to B.4 (Plutella xylostella) @ 10 ppm” value in test [1] is on record as 25%.
One may read the mortality as the percentage killed. As for `CCS(=O)(=O)c1cc(-c2ccc(F)cc2)cnc1-c1cn2c(=O)n(C3CC3)c(Cl)cc2n1` [I.1, 7-chloro-6-cyclopropyl-2-[3-ethylsulfonyl-5-(4-fluorophenyl)-2-pyridyl]imidazo[1,2-c]pyrimidin-5-one], the mortality at 800 ppm in test [2], in test [3], in test [4] and in test [1] was above 75% each time. Besides, the mortality at 300 ppm in test [5] was above 75%.
With `CCS(=O)(=O)c1cc(C(C)(C)C#N)cnc1-c1cn2c(=O)n(C3CC3)c(Cl)cc2n1` [I.3], the mortality at 800 ppm in test [2], in test [4] and in test [1] was above 75% throughout. Moreover, the “Test according to B.4 (Plutella xylostella) @ 10 ppm” value in test [1] stood at 100%. In test [5], the mortality at 300 ppm was above 75%.
`CCS(=O)(=O)c1cc(-c2ccc(F)cc2)cnc1-c1cn2c(=O)n(C3CC3)c(Br)cc2n1` [I.4, 7-bromo-6-cyclopropyl-2-[3-ethylsulfonyl-5-(4-fluorophenyl)-2-pyridyl]imidazo[1,2-c]pyrimidin-5-one]: the mortality at 800 ppm in test [2], in test [3], in test [4] and in test [1] was above 75% in each case. Moreover, the mortality at 300 ppm in test [5] is above 75%.
In the case of `CCS(=O)(=O)c1cc(-c2ccc(F)cc2)c(C)nc1-c1cn2c(=O)n(C3CC3)c(Cl)cc2n1` [I.5, 7-chloro-6-cyclopropyl-2-[3-ethylsulfonyl-5-(4-fluorophenyl)-6-methyl-2-pyridyl]imidazo[1,2-c]pyrimidin-5-one], the mortality at 800 ppm in test [2], in test [3], in test [4] and in test [1] was above 75% each time. Moreover, the mortality at 300 ppm in test [5] is above 75%.

The values are drawn from patent publication US20260206762A1, “PYRIMIDINONE DERIVATIVES AS PESTICIDAL COMPOUNDS” (BASF SE, priority 2022, published 2026).
